Some test systems named below: SK-MEL-28 melanoma; SK-MEL-5 melanoma; OVCAR-4 ovarian; TK-10 renal; HS 578T breast; UACC-62 melanoma; SK-MEL-2 melanoma; COLO 205 colon; CAKI-1 renal; LOX IMVI melanoma.
Holding throughout (assay): NCI-60 cell line screen, 48 h

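Exposure lasted 48 hours, with cells grown in 96-well plates and compounds tested at five concentrations. TGI: concentration producing complete growth inhibition.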

As for `CC(=O)C1(c2ccccc2)CCCN(C)CC1` (stereo not given), the TGI in the experiment on SK-MEL-28 melanoma, in the experiment on SK-MEL-5 melanoma, with OVCAR-4 ovarian, in the experiment on TK-10 renal, with HS 578T breast and in the experiment on UACC-62 melanoma was above 100 µM in each case. In addition, the TGI in the experiment with SK-MEL-2 melanoma, in the experiment with COLO 205 colon, with CAKI-1 renal and with LOX IMVI melanoma was above 100 µM in each case.

In the case of `COc1nc(C#CCCCC#N)nc(OC)n1`, the TGI is 34.8 µM in the experiment with SK-MEL-28 melanoma; 28.2 µM with SK-MEL-5 melanoma; 17.9 µM in the experiment on OVCAR-4 ovarian; 37.7 µM in the experiment with TK-10 renal; above 100 µM in the experiment on HS 578T breast; 22.8 µM with UACC-62 melanoma. In addition, the TGI in the experiment with SK-MEL-2 melanoma is 32.2 µM; in the experiment on COLO 205 colon, above 100 µM; in the experiment with CAKI-1 renal, 27.2 µM; in the experiment on LOX IMVI melanoma it was 14.2 µM.

On to `O=c1c2c([nH]c3nccn13)CCCC2`, for which the TGI in the experiment with SK-MEL-28 melanoma, in the experiment on SK-MEL-5 melanoma, with OVCAR-4 ovarian, in the experiment with TK-10 renal, with HS 578T breast and in the experiment with UACC-62 melanoma was above 10 µM each time. In addition, the TGI in the experiment with SK-MEL-2 melanoma, with COLO 205 colon, in the experiment on CAKI-1 renal and in the experiment with LOX IMVI melanoma was above 10 µM in each case.

`COc1ccc(/C=c2/[nH]c(=O)/c(=C\c3ccc(OCc4ccccc4)cn3)[nH]c2=O)cc1`: the TGI with SK-MEL-28 melanoma, with SK-MEL-5 melanoma, in the experiment with OVCAR-4 ovarian, with TK-10 renal, in the experiment with HS 578T breast and in the experiment on UACC-62 melanoma was above 100 µM throughout. Besides, the TGI with SK-MEL-2 melanoma, in the experiment with COLO 205 colon, with CAKI-1 renal and with LOX IMVI melanoma was above 100 µM in each case.

The record behind these values is PubChem BioAssay (NCI).
